Test results published in patent publication US4021556A, “Xanthine oxidase inhibitors” (ICN Pharmaceuticals, Inc., priority 1975, dated 1977).
pIC50: −log10 of the molar value.

Legend:
[1] = target: T1, purified milk xanthine oxidase (Bos taurus, UniProt P80457); assay: Xanthine oxidase inhibition, spectrophotometric at 290 nm; type: biochemical; details: for relative activity (α) compared to allopurinol: ratio to allopurinol (allopurinol = 1); for pIC50: xanthine substrate 0.013 micromoles in 3.0 ml, tris HCl buffer pH 7.50, 25° C, unit taken, none in table
T1 construct: purchased Worthington Biochemical Corporation
Protocol: In this example, the inhibitory activity of the compounds of the invention was determined by recording spectral changes at a constant wavelength of 290 nm, using a Cary Model 15 recording spectrophotometer equipped with a 0-0.1 O.D. slidewire. […] After dissolving in DMSO, the compounds were introduced into the incubation mixture containing 150 micromoles of tris HCl buffer (pH 7.50), 0.6 micromoles EDTA, 0.013 micromoles xanthine, and 20 to 40 micrograms of xanthine oxidase in a final volume of 3.0 milliliters. […] The assay was carried out by mixing all the components in a cuvette at 25° C. The reaction was started by the addition of the enzyme with the aid of a stirrer-adder. Changes in O.D. were measured for several minutes, and the rate (O.D. per minute) was calculated from the spectral change over the first 15 seconds.

xanthine oxidase = details: metabolite of allopurinol; cited from earlier work
[2] = cited from earlier work
[3] = dose killing 50% of a group of animals in two weeks, injected into the intraparietal cavity; 20160 min; cited from earlier work

T1 sequence (P80457 whole entry): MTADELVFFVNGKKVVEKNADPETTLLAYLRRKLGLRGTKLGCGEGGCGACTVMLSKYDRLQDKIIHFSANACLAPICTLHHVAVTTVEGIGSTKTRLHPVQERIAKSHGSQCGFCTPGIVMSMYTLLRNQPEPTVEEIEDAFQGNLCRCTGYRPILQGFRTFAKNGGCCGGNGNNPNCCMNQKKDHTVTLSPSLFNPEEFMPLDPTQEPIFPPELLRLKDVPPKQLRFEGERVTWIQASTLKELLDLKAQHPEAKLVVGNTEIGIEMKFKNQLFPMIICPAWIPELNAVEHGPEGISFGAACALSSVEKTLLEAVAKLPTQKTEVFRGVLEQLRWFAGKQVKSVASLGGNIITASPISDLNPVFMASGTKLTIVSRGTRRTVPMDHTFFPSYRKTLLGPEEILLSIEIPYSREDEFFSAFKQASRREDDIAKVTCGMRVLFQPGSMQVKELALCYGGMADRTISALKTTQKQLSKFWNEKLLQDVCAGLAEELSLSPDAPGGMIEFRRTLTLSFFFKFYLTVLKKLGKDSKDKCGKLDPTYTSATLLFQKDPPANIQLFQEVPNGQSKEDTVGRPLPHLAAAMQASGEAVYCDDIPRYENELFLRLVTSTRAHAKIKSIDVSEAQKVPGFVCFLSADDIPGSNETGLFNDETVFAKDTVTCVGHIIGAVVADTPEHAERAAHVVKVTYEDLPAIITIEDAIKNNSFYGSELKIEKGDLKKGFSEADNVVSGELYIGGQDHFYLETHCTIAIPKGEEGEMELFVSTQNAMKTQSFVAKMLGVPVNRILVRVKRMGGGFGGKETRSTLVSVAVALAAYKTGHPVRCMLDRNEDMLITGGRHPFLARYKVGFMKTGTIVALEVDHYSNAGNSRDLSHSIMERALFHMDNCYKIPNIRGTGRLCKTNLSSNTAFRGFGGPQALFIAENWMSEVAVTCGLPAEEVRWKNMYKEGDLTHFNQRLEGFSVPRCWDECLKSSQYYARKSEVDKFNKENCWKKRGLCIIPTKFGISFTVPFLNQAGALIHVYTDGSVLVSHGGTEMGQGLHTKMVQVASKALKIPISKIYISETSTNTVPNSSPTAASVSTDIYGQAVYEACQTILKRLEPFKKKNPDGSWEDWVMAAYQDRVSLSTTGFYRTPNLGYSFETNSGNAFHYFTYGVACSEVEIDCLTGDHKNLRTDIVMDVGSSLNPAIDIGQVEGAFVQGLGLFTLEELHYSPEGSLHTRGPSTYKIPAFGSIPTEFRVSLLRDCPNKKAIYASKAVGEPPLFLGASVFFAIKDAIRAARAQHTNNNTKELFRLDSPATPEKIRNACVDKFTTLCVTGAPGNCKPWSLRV

relative activity (α) compared to allopurinol [1]	Compound	other results
20	3-(1'-naphthyl)pyrazolo[1,5,a]pyrimidine-5,7-diol [Compound (9)]	
116	3-(3'-pyridyl)pyrazolo[1,5,a]pyrimidine-5,7-diol [(8)]	
52	3-phenyl pyrazolo[1,5,a]pyrimidine-5,7-diol [Compound (1)]	
50	Cc1cccc(-c2cnn3c(O)ccnc23)c1 [Compound (10), 3-(m-tolyl)pyrazolo[1,5a]pyrimidin-7-ol]	pIC50 [1]: 7.00
33	Oc1ccnc2c(-c3ccccc3)cnn12 [Compound (11), 3-phenylpyrazolo[1,5a]pyrimidine-7-ol]	pIC50 [1]: 6.82

More lines, now with the values behind:

Compound	relative activity (α) compared to allopurinol [1]	other results
3-(m-tolyl)pyrazolo[1,5,a]pyrimidine-5,7-diol [(2)]	116	
3-(p-acetamidophenyl)pyrazolo[1,5,a]pyrimidine-5,7-diol [(6)]	200	
3-(p-bromophenyl)pyrazolo[1,5,a]pyramidine-5,7-diol [Compound (4)]	56	
3-(p-chlorophenyl)pyrazolo[1,5,a]pyrimidine-5,7-diol [(5)]	131	
3-(p-tolyl)pyrazolo[1,5,a]pyrimidine-5,7-diol [(3)]	151	
3-piperonylpyrazolo[1,5,a]pyrimidine-5,7-diol [(7)]	172	
Oc1nc(O)c2cn[nH]c2n1 [4,6-dihydroxy pyrazolo[3,4-d]pyrimidine]		inhibitor effectiveness compared with allopurinol (xanthine oxidase): not as effective an inhibitor as is allopurinol
Oc1ncnc2[nH]ncc12 [Allopurinol, allopurinol]		metabolism in vivo [2]: gradually metabolized in vivo to 4,6-dihydroxy pyrazolo[3,4-d]pyrimidine; LD50 [3]: about 150 milligrams per kilogram of body weight
